Test results reported in patent US8207188B2, “Treatment of diseases modulated by a H4 receptor agonist” (priority 2006, dated 2012).

How the values were obtained:
H4R = target: T1, H4R (Mus musculus, UniProt Q91ZY2); test: Cell cycle status after H4R silencing with siRNA; format: cell-based; conditions: 10 μM; H4R siRNA transfected c-kit+ cells
T1 construct: endogenous in cells; host or cells: freshly sorted c-kit+ haematopoietic progenitor cells
T1 sequence (Q91ZY2 1-391): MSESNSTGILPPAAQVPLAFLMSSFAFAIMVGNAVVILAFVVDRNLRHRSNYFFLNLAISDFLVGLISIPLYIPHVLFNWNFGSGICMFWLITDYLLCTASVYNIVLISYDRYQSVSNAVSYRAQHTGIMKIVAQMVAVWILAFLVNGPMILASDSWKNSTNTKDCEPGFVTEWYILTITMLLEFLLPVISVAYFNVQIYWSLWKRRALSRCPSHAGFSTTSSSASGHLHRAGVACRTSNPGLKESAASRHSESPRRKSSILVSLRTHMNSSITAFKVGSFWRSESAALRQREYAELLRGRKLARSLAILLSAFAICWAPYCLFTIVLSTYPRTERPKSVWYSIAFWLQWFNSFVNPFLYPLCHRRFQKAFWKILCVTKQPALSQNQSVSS
Description: H4R silencing was performed with freshly sorted c-kit^+ cells. For transfection, 3 μl of HiPerFect reagent (Qiagen; Courtaboeuf, France) and 4 μl ([…]) of human and 8 μl (80 pmol) of murine H4R siRNA, scrambled FITC-labeled or unconjugated control siRNAs (all from Santa Cruz Biotechnology) were incubated in 50 μl x-vivo medium (Cambrex; East Rutherford, N.J.) for 20 min at room temperature. The mixture was then added to 50 μl of cell suspension at a final concentration of 10^6 cells/ml and incubated for 20 h, when transfection efficiency was verified with scrambled FITC-conjugated siRNA. Cells were then centrifuged and resuspended at a concentration of 10^5 cells/ml in StemSpan medium with growth factor cocktail. The extinction of H4R protein expression was ascertained by FACS analysis after 24 h. After 3 days of culture with or without tritoqualine (10 μM) or Clobenpropit (10 μM) cells were counted and their viability was assessed by trypan blue exclusion. The cell cycle status was assessed after an overnight incubation.

c-kit+ BM cells = test: Cell cycle status of c-kit+ BM cells with pertussis toxin; format: cell-based, murine; conditions: 10 μM, 2 h
Description: Progenitor-enriched murine c-kit^+ BM or cord blood-derived CD34^+ cells were prepared by positive magnetic selection, suspended at a final concentration of 10^5 per ml in serum-free StemSpan medium (StemCell Technologies) and cultured up to 3 days in the presence of 10 ng of IL-3, 10 ng of IL-6 and 50 ng of SCF (Stem Cell Factor) per ml, with or without Clobenpropit (10^−5 M), Tritoqualine or both.
Magnetically sorted c-kit^+ BM cells were incubated for 2 h in StemSpan medium with growth factor cocktail alone or in the presence of 10^−5 M Clobenpropit, Tritoqualine or enantiomers. The cell cycle status was then assessed using Vybrant DyeCycle Violet (VDV) Stain (Invitrogen), according to the manufacturer's instructions.
The effect of Bordetella pertussis toxin (PTX; 100 ng/ml), an inhibitor of Gi/o coupling to the H4R, on the cell cycle arrest promoted by receptor activation was evaluated in the same conditions. After incubation, cells were analyzed using FlowJo software.

[1] = test system: Colony Forming Cells (CFC, mouse medullary cells C57B1/6) expressing H4R; test: Cell cycle analysis of haematopoietic progenitor cells (propidium iodide, FACS); format: cell-based; conditions: 10 μM
Description: Haematopoietic progenitor cells were incubated for 1-3 day(s) with a cocktail of growth factors (IL-3, 10 ng/ml, IL-6 10 ng/ml), […] (50 ng/ml) in the culture medium StemSpan® (without serum) in the presence and absence of TRQ and H4R antagonist (JNJ7777120, Sigma Aldrich).
Cells were later stained with propidium iodide (PI) for the analysis of the cell cycle according to the following protocol:
2×10^6 cells/ml were labelled with CD1 17-FITC for 20 min in PBS, then washed in PBS and stained with PBS 1% formaldehyde, without methanol, at 4° C. for 5 min and again washed in PBS.
The cells were then lysed with 1 ml of PVTritonX100 and RNAse without DNAse (0.2 mcg/ml), PI (20 mcg/ml), and incubated in PBS for 30 min at ambient temperature.
The lysed cells were analyzed with FACS scan (FL2-area IFL2-width) for cell cycle analysis and FL1 for labelling of cell Surface.
10^6 cells enriched in haematopoietic stem cells were incubated in 2 ml of CFSE […] in PBS 10 min, 37° C. The reaction was stopped by the addition of cold PBS in excess (5×) and centrifuged for 5 min at 1700 rpm.
Cells were resuspended in the culture medium StemSpan® (without serum) and stimulated with the growth Factor cocktail, and analyze in FACs scan (FL1) after 72 hours incubation.

SMILES | activity inhibiting the cell cycle at the G0/G1 phase after H4R siRNA (H4R) | H4R agonist activity (percentage of cells at the G0/G1 phase) (c-kit+ BM cells) | haematopoietic progenitor cells blocked (G0/G1) [1]
CCOc1c(N)c2c(c(OCC)c1OCC)[C@H]([C@H]1c3c(cc4c(c3OC)OCO4)CCN1C)OC2=O [E1] | reversed | H4R agonist activity similar to the one of CB | Approximately 48%
CCOc1c(N)c2c(c(OCC)c1OCC)[C@@H]([C@@H]1c3c(cc4c(c3OC)OCO4)CCN1C)OC2=O [E2] | reversed | H4R agonist activity similar to the one of CB | Approximately 60%
